{"source": "patent US20240173425A1", "about": "“HUMAN CD33 ANTIBODIES AND GLUCOCORTICOID CONJUGATES” (Eli Lilly and Company, priority 2022, published 2024)", "key": {"human PBMCs": {"system": "human PBMCs", "assay": "Proinflammatory cytokine modulation in LPS-stimulated PBMCs", "format": "cell-based", "conditions": "PBMC, 200 nM, LPS 100 pg/mL, 24 hours", "description": "PBMCs were used to mimic in vivo conditions. […] The cells were then stimulated with LPS (Sigma cat. L2880) at 100 pg/mL in a 37° C. incubator for 24 hours. Culture supernatants were collected to measure the indicated cytokines (Proinflammatory Panel II (human) 4-Plex kits, MSD, K15053D-2)."}, "[1]": {"system": "human plasmacytoid dendritic cells (pDCs)", "assay": "Plasmacytoid dendritic cell differentiation assay", "format": "cell-based", "conditions": "human PBMCs, IL-3 supplemented media, CpG stimulation", "description": "The differentiation of pDC was measured by flow cytometry. The functional effects of the pDC were measured by type I IFN (IFNα) production."}, "[2]": {"system": "oxazolone-induced skin inflammation", "assay": "Oxazolone-induced contact hypersensitivity in humanized mouse model (HuNOG-EXL)", "format": "in vivo", "conditions": "Challenge 3, 3 mg/kg SC 1 hour prior to sensitization and each challenge", "description": "(§1) Briefly, huNOG-EXL mice were engrafted at 6 weeks of age with human CD34+ hematopoietic stem cells isolated from human cord blood. 20-24 weeks after stem cell administration the mice were assessed for human CD45 engraftment (>25% in blood) and subjected to an oxazolone-induced contact hypersensitivity protocol. […] 24 hours (Day 1) post administration, the mice were anesthetized with 5% isoflurane, their abdomens shaved, and sensitized with 100 μL of 3% oxazolone in ethanol (applied to the shaved area). Mice were dosed again on Day 4, 11, and 16 as above, and challenged with 2% oxazolone in ethanol on both ears (10 μL/side/ear) 48 hours post each dose (Day 6—Challenge 1, Day 13—Challenge 2, and Day 18—Challenge 3). For the GC1 alone group, mice were dosed with 3 mg/kg SC 1 hour prior to sensitization and prior to each challenge. Upon final challenge, mice were euthanized, and ear tissue and the gastrocnemius was collected for analysis of target selective and non-target selective tissue expression of GC regulated genes."}, "FKBP5 gene expression": {"system": "FKBP5 gene expression", "assay": "GC regulated gene expression in tissues of the contact hypersensitivity model", "format": "in vivo, mouse", "conditions": "3 mg/kg", "description": "as §1"}}, "note": "Like-named read-outs stand apart in the source and are kept apart here. Marks after values point to notes of the source that are not given here.", "data": [{"smiles": "Cc1ccc(OCc2cccc(N)c2)c(F)c1[C@H]1O[C@@H]2C[C@H]3[C@@H]4CCC5=CC(=O)C=C[C@]5(C)[C@H]4[C@@H](O)C[C@]3(C)[C@]2(C(=O)CO)O1", "note": "(single isomer, unassigned) [GC1]", "values": [{"measurement": "inhibition at 0.2 µM", "setting": "human PBMCs; read-out: % Inhibition of human IL-6 secretion at 200 nM", "value": "83.9 ± 2.81", "unit": "%"}, {"measurement": "inhibition at 0.2 µM", "setting": "human PBMCs; read-out: % Inhibition of human TNFa secretion at 200 nM", "value": "85.1 ± 3.28", "unit": "%"}, {"measurement": "% Inhibition of human IFNα secretion", "setting": "[1]", "value": "97.18 ± 2.95", "unit": "%"}, {"measurement": "% Inhibition of pDC cell differentiation", "setting": "[1]; flow cytometry", "value": "95.50 ± 8.32", "unit": "%"}, {"measurement": "Δ Ear thickness, Mean", "setting": "[2]", "value": "0.018*^ mm"}, {"measurement": "Fold increase in FKBP5 gene expression compared to Isotype, Gastrocnemius, Mean", "setting": "FKBP5 gene expression; non-targeted tissue (Gastrocnemius)", "value": 3.958}, {"measurement": "Fold increase in FKBP5 gene expression compared to Isotype, Ear, Mean", "setting": "FKBP5 gene expression; targeted tissue (Ear)", "value": 4.505}]}]}
